Experimental data: US20250049035A1, “MICROBIOCIDAL BICYCLE HETEROCYCLIC DERIVATIVES” (SYNGENTA CROP PROTECTION AG, priority 2021, published 2025)

What was measured:
Fusarium culmorum = experiment: microbe, parasite or virus in culture; assay type: cell-based; settings: read-out: control of Fusarium culmorum
Alternaria solani = Alternaria solani / tomato / leaf disc (early blight); assay type: in vivo; settings: foliar, tomato leaf disks cv. Baby, inoculated 2 days after application, assessed 5-7 days after application, compared to untreated control
Experimental: Example B1: Alternaria solani/Tomato/Leaf Disc (Early Blight) Tomato leaf disks cv. Baby are placed on agar in multiwell plates (24-well format) and sprayed with the formulated test compound diluted in water. The leaf disks are inoculated with a spore suspension of the fungus 2 days after application. The inoculated leaf disks are incubated at 23° C./21° C.

[1] = system: Phaeosphaeria nodorum (Septoria nodorum); experiment: Phaeosphaeria nodorum (Septoria nodorum) / wheat / leaf disc preventative (glume blotch); assay type: in vivo; settings: Parastagonospora nodorum, foliar, wheat leaf segments cv. Kanzler, inoculated 2 days after application, assessed 5-7 days after application, compared to untreated control
Experimental: Example B8: Phaeosphaeria Nodorum (Septoria nodorum)/Wheat/Leaf Disc Preventative (Glume Blotch) Wheat leaf segments cv. Kanzler are placed on agar in a multiwell plate (24-well format) and sprayed with the formulated test compound diluted in water. The leaf disks are inoculated with a spore suspension of the fungus 2 days after application. The inoculated test leaf disks are incubated at 20° C. and 75% relative humidity under a light regime of 12 h light/12 h darkness in a climate cabinet and the activity of a compound is assessed as percent disease control compared to untreated when an appropriate level of disease damage appears in untreated check leaf disks (5-7 days after application).

[2] = system: Blumeria graminis f. sp. tritici (Erysiphe graminis f. sp. tritici); experiment: Blumeria graminis f. sp. tritici / wheat / leaf disc preventative (powdery mildew); assay type: in vivo; settings: foliar, wheat leaf segments cv. Kanzler, inoculated 1 day after application, assessed 6-8 days after application, compared to untreated control
Experimental: Example B4: Blumeria graminis f. sp. tritici (Erysiphe graminis f. sp. tritici)/Wheat/Leaf Disc Preventative (Powdery Mildew on Wheat) Wheat leaf segments cv. Kanzler are placed on agar in a multiwell plate (24-well format) and sprayed with the formulated test compound diluted in water. The leaf disks are inoculated by shaking powdery mildew infected plants above the test plates 1 day after application. The inoculated leaf disks are incubated at 20° C. and 60% relative humidity under a light regime of 24 h darkness followed by 12 h light/12 h darkness in a climate chamber and the activity of a compound is assessed as percent disease control compared to untreated when an appropriate level of disease damage appears on untreated check leaf segments (6-8 days after application).

[3] = system: Glomerella lagenarium (Colletotrichum lagenarium); experiment: Glomerella lagenarium (Colletotrichum lagenarium) / liquid culture (anthracnose); assay type: cell-based; settings: Colletotrichum orbiculare, liquid culture (potato dextrose broth), growth inhibition photometrically 3-4 days after application, compared to untreated control
Experimental: (§1) Example B3: Glomerella lagenarium (Colletotrichum lagenarium)/Liquid Culture (Anthracnose) Conidia of the fungus from cryogenic storage are directly mixed into a nutrient broth (potato dextrose broth). After placing a DMSO solution of test compound into a microtiter plate (96-well format), the nutrient broth containing the fungal spores is added. The test plates are incubated at 24° C. and the inhibition of growth is measured photometrically 3-4 days after application.

[4] = system: Mycosphaerella graminicola (Septoria tritici); experiment: Mycosphaerella graminicola (Septoria tritici) / liquid culture (Septoria blotch); assay type: cell-based; settings: Zymoseptoria tritici, liquid culture (potato dextrose broth), growth inhibition photometrically 4-5 days after application, compared to untreated control
Experimental: as §1, with “B15: Mycosphaerella graminicola (Septoria tritici/Liquid” for “B3: Glomerella lagenarium (Colletotrichum lagenarium)/Liquid”, “(Septoria Blotch)” for “(Anthracnose)”, “determined” for “measured”, “4-5” for “3-4”

Pyrenophora teres = Pyrenophora teres / barley / leaf disc preventative (net blotch); assay type: in vivo; settings: foliar, barley leaf segments cv. Hasso, inoculated 2 days after application, assessed 5-7 days after application, compared to untreated control
Experimental: Example B12: Pyrenophora teres/Barley/Leaf Disc Preventative (Net Blotch) Barley leaf segments cv. Hasso are placed on agar in a multiwell plate (24-well format) and sprayed with the formulated test compound diluted in water. The leaf segments are inoculated with a spore suspension of the fungus 2 days after application. The inoculated leaf segments are incubated at 20° C. and 65% relative humidity under a light regime of 12 h light/12 h darkness in a climate cabinet and the activity of a compound is assessed as disease control compared to untreated when an appropriate level of disease damage appears in untreated check leaf segments (5-7 days after application).

[5] = system: Mycosphaerella arachidis (Cercospora arachidicola); experiment: Mycosphaerella arachidis (Cercospora arachidicola) / liquid culture (early leaf spot); assay type: cell-based; settings: liquid culture (potato dextrose broth), growth inhibition photometrically 4-5 days after application, compared to untreated control
Experimental: as §1, with “B10: Mycosphaerella arachidis (Cercospora arachidicola)/Liquid” for “B3: Glomerella lagenarium (Colletotrichum lagenarium)/Liquid”, “(Early Leaf Spot)” for “(Anthracnose)”, “broth)” for “broth).”, “determined” for “measured”, “4-5” for “3-4”

[6] = system: Botryotinia fuckeliana (Botrytis cinerea); experiment: Botryotinia fuckeliana (Botrytis cinerea) / liquid culture (gray mould); assay type: cell-based; settings: liquid culture (Vogels broth), growth inhibition photometrically 3-4 days after application, compared to untreated control
Experimental: as §1, with “B2: Botryotinia fuckeliana (Botrytis cinerea)/Liquid” for “B3: Glomerella lagenarium (Colletotrichum lagenarium)/Liquid”, “(Gray Mould)” for “(Anthracnose)”, “(Vogels” for “(potato dextrose”, “determined” for “measured”

[7] = system: Monographella nivalis (Microdochium nivale); experiment: Monographella nivalis (Microdochium nivale) / liquid culture (foot rot cereals); assay type: cell-based; settings: liquid culture (potato dextrose broth), growth inhibition photometrically 4-5 days after application, compared to untreated control
Experimental: as §1, with “B9: Monographella nivalis (Microdochium nivale)/Liquid” for “B3: Glomerella lagenarium (Colletotrichum lagenarium)/Liquid”, “(Foot Rot Cereals)” for “(Anthracnose)”, “determined” for “measured”, “4-5” for “3-4”

Sclerotinia sclerotiorum = Sclerotinia sclerotiorum / liquid culture (cottony rot); assay type: cell-based; settings: liquid culture (potato dextrose broth), growth inhibition photometrically 3-4 days after application, compared to untreated control
Experimental: Example B14: Sclerotinia sclerotiorum/Liquid Culture (Cottony Rot) Mycelia fragments of a newly grown liquid culture of the fungus are directly mixed into a nutrient broth (potato dextrose broth). After placing a DMSO solution of test compound into a microtiter plate (96-well format) the nutrient broth containing the fungal material is added. The test plates are incubated at 24° C. and the inhibition of growth is determined photometrically 3-4 days after application.

Cc1c(C2CN(C(=O)c3cc(-c4ccc(F)cc4F)on3)Cc3sccc32)cnn1C (stereo not drawn) [Compound P-32, [5-(2,4-difluorophenyl)isoxazol-3-yl]-[4-(1,5-dimethylpyrazol-4-yl)-5,7-dihydro-4H-thieno[2,3-c]pyridin-6-yl]methanone]
≥ 80%: inhibition of growth at 20 ppm (Fusarium culmorum) | pest or weed control at 200 ppm (Alternaria solani) | pest or weed control at 200 ppm [1] | pest or weed control at 200 ppm [2] | inhibition of growth at 20 ppm [3] | inhibition of growth at 20 ppm [4] | pest or weed control at 200 ppm (Pyrenophora teres) | inhibition of growth at 20 ppm [5] | inhibition of growth at 20 ppm [6] | inhibition of growth at 20 ppm [7] | inhibition of growth at 20 ppm (Sclerotinia sclerotiorum)

Cc1c(C2CN(C(=O)c3cc(-c4ccc(F)cc4F)on3)Cc3ccsc32)cnn1C (stereo not drawn) [Compound P-33, [5-(2,4-difluorophenyl)isoxazol-3-yl]-[7-(1,5-dimethylpyrazol-4-yl)-6,7-dihydro-4H-thieno[3,2-c]pyridin-5-yl]methanone]
≥ 80%: inhibition of growth at 20 ppm (Fusarium culmorum) | pest or weed control at 200 ppm (Alternaria solani) | pest or weed control at 200 ppm [1] | pest or weed control at 200 ppm [2] | inhibition of growth at 20 ppm [3] | inhibition of growth at 20 ppm [4] | pest or weed control at 200 ppm (Pyrenophora teres) | inhibition of growth at 20 ppm [5] | inhibition of growth at 20 ppm [6] | inhibition of growth at 20 ppm [7] | inhibition of growth at 20 ppm (Sclerotinia sclerotiorum)

C[C@H]1c2sccc2[C@@H](c2cnn(C)c2)CN1C(=O)c1cc(-c2ccc(F)cc2F)on1 (racemic) [Compound P-14, [5-(2,4-difluorophenyl)isoxazol-3-yl]-[rac-(4R,7S)-7-methyl-4-(1-methylpyrazol-4-yl)-5,7-dihydro-4H-thieno[2,3-c]pyridin-6-yl]methanone]
≥ 80%: inhibition of growth at 20 ppm (Fusarium culmorum) | pest or weed control at 200 ppm (Alternaria solani) | pest or weed control at 200 ppm [1] | pest or weed control at 200 ppm [2] | inhibition of growth at 20 ppm [3] | inhibition of growth at 20 ppm [4] | pest or weed control at 200 ppm (Pyrenophora teres) | inhibition of growth at 20 ppm [5] | inhibition of growth at 20 ppm [6] | inhibition of growth at 20 ppm (Sclerotinia sclerotiorum)

Cn1cc(C2(C)CN(C(=O)c3nnc(-c4ccc(F)cc4F)s3)Cc3sccc32)cn1 (stereo not drawn) [Compound P-18, methylpyrazol-4-yl)-5,7-[5-(2,4-difluorophenyl)-1,3,4-thiadiazol-2-yl]-[4-methyl-4-(1-dihydrothieno[2,3-c]pyridin-6-yl]methanone]
≥ 80%: inhibition of growth at 20 ppm (Fusarium culmorum) | pest or weed control at 200 ppm (Alternaria solani) | pest or weed control at 200 ppm [1] | pest or weed control at 200 ppm [2] | inhibition of growth at 20 ppm [3] | inhibition of growth at 20 ppm [4] | pest or weed control at 200 ppm (Pyrenophora teres) | inhibition of growth at 20 ppm [5] | inhibition of growth at 20 ppm [6] | inhibition of growth at 20 ppm (Sclerotinia sclerotiorum)

Cc1c([C@H]2CN(C(=O)c3cc(-c4ccc(F)cc4F)on3)Cc3ccsc32)cnn1C [Compound P-3, [5-(2,4-difluorophenyl)isoxazol-3-yl]-[(7S)-7-(1,5-dimethylpyrazol-4-yl)-6,7-dihydro-4H-thieno[3,2-c]pyridin-5-yl]methanone]
≥ 80%: inhibition of growth at 20 ppm (Fusarium culmorum) | pest or weed control at 200 ppm (Alternaria solani) | pest or weed control at 200 ppm [1] | pest or weed control at 200 ppm [2] | inhibition of growth at 20 ppm [3] | inhibition of growth at 20 ppm [4] | pest or weed control at 200 ppm (Pyrenophora teres) | inhibition of growth at 20 ppm [6] | inhibition of growth at 20 ppm [7] | inhibition of growth at 20 ppm (Sclerotinia sclerotiorum)

C[C@H]1c2sccc2[C@@H](c2cnn(C)c2)CN1C(=O)c1nnc(-c2ccc(F)cc2F)s1 [Compound P-2, [5-(2,4-difluorophenyl)-1,3,4-thiadiazol-2-yl]-[(4R,7S)-7-methyl-4-(1-methylpyrazol-4-yl)-5,7-dihydro-4H-thieno[2,3-c]pyridin-6-yl]methanone]
≥ 80%: inhibition of growth at 20 ppm (Fusarium culmorum) | pest or weed control at 200 ppm (Alternaria solani) | pest or weed control at 200 ppm [1] | pest or weed control at 200 ppm [2] | inhibition of growth at 20 ppm [3] | inhibition of growth at 20 ppm [4] | pest or weed control at 200 ppm (Pyrenophora teres) | inhibition of growth at 20 ppm [5] | inhibition of growth at 20 ppm [6] | inhibition of growth at 20 ppm [7] | inhibition of growth at 20 ppm (Sclerotinia sclerotiorum)

C[C@H]1c2sccc2[C@@](C)(c2cnn(C)c2)CN1C(=O)c1nnc(-c2ccc(F)cc2F)s1 [Compound P-6, [5-(2,4-difluorophenyl)-1,3,4-thiadiazol-2-yl]-[(4R,7S)-4,7-dimethyl-4-(1-methylpyrazol-4-yl)-5,7-dihydrothieno[2,3-c]pyridin-6-yl]methanone]
≥ 80%: inhibition of growth at 20 ppm (Fusarium culmorum) | pest or weed control at 200 ppm (Alternaria solani) | pest or weed control at 200 ppm [1] | pest or weed control at 200 ppm [2] | inhibition of growth at 20 ppm [3] | inhibition of growth at 20 ppm [4] | pest or weed control at 200 ppm (Pyrenophora teres) | inhibition of growth at 20 ppm [5] | inhibition of growth at 20 ppm [6] | inhibition of growth at 20 ppm [7] | inhibition of growth at 20 ppm (Sclerotinia sclerotiorum)

Cc1c(C2CN(C(=O)c3nnc(-c4ccc(F)cc4F)s3)Cc3sccc32)cnn1C (stereo not drawn) [Compound P-25, [5-(2,4-difluorophenyl)-1,3,4-thiadiazol-2-yl]-[4-(1,5-dimethylpyrazol-4-yl)-5,7-dihydro-4H-thieno[2,3-c]pyridin-6-yl]methanone]
≥ 80%: inhibition of growth at 20 ppm (Fusarium culmorum) | pest or weed control at 200 ppm (Alternaria solani) | pest or weed control at 200 ppm [1] | pest or weed control at 200 ppm [2] | inhibition of growth at 20 ppm [3] | inhibition of growth at 20 ppm [4] | pest or weed control at 200 ppm (Pyrenophora teres) | inhibition of growth at 20 ppm [6] | inhibition of growth at 20 ppm [7] | inhibition of growth at 20 ppm (Sclerotinia sclerotiorum)
